Data as given in US6737383B1, “Herbicidal oxadiazolidines” (priority 1999, dated 2004).

Columns and labels:
[1] = system: corn; test: Test B pre/postemergence corn; format: in vivo, Zea mays; settings: for Corn plant response rating: scale of 0 to 10 where 0 is no effect and 10 is complete control
Outline: (§1)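 Test chemicals in a non-phytotoxic solvent mixture with surfactant were sprayed preemergence onto planted seeds and postemergence onto plants 2 to 18 cm tall (1- to 4-leaf stage). After twelve to sixteen days in a greenhouse, injury was visually rated against untreated controls from 0 (no effect) to 10 (complete control).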

[2] = system: rape; test: Test B pre/postemergence rape; format: in vivo, Brassica napus; settings: for Rape plant response rating: scale of 0 to 10 where 0 is no effect and 10 is complete control
Outline: as §1

[3] = system: surinam grass; test: Test B pre/postemergence surinam grass; format: in vivo, Brachiaria decumbens
Outline: as §1

[4] = system: pigweed; test: Test B pre/postemergence pigweed; format: in vivo, Amaranthus retroflexus; settings: for Redroot pigweed plant response rating: scale of 0 to 10 where 0 is no effect and 10 is complete control
Outline: as §1

[5] = system: cocklebur; test: Test B pre/postemergence cocklebur; format: in vivo, Xanthium strumarium; settings: for Cocklebur plant response rating: scale of 0 to 10 where 0 is no effect and 10 is complete control
Outline: as §1

[6] = system: bedstraw; test: Test B pre/postemergence bedstraw; format: in vivo, Galium aparine; settings: Postemergence
Outline: as §1

[7] = system: duck salad; test: Test B flood test duck salad; format: in vivo, Heteranthera limosa
Outline: (§2)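 Read-out is a visual response score from 0 (no effect) to 10 (complete control), assigned by comparison with untreated controls. Treatment was applied at the 2-leaf stage, and plants stayed in the greenhouse for twelve to sixteen days before scoring.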

[8] = system: purple nutsedge; test: Test B pre/postemergence purple nutsedge; format: in vivo, Cyperus rotundus; settings: for Nutsedge plant response rating: scale of 0 to 10 where 0 is no effect and 10 is complete control
Outline: as §1

[9] = system: bamyardgrass; test: Test B flood test barnyardgrass; format: in vivo, Echinochloa crus-galli
Outline: as §2

[10] = system: morningglory; test: Test B pre/postemergence morningglory; format: in vivo, Ipomoea hederacea; settings: for Morningglory plant response rating: scale of 0 to 10 where 0 is no effect and 10 is complete control
Outline: as §1

[11] = system: wheat; test: Test B pre/postemergence wheat; format: in vivo, Triticum aestivum; settings: for Wheat plant response rating: scale of 0 to 10 where 0 is no effect and 10 is complete control
Outline: as §1

[12] = system: velvetleaf; test: Test B pre/postemergence velvetleaf; format: in vivo, Abutilon theophrasti; settings: for Velvetleaf plant response rating: scale of 0 to 10 where 0 is no effect and 10 is complete control
Outline: as §1

[13] = system: wild oat; test: Test B pre/postemergence wild oat; format: in vivo, Avena fatua; settings: for Wild oats plant response rating: scale of 0 to 10 where 0 is no effect and 10 is complete control
Outline: as §1

[14] = system: rice; test: Test B flood test rice; format: in vivo, Oryza sativa
Outline: as §2

[15] = system: smallflower flatsedge; test: Test B flood test smallflower flatsedge; format: in vivo, Cyperus difformis
Outline: as §2

[16] = system: blackgrass; test: Test B pre/postemergence blackgrass; format: in vivo, Alopecurus myosuroides
Outline: as §1

[17] = Postemergence, Rate 125 g/ha, scale 0 to 10, 0 is no effect, 10 is complete control
[18] = Preemergence, Rate 62 g/ha, scale 0 to 10 (0 no effect, 10 complete control)
[19] = Rate 500 g/ha, Postemergence, scale 0 to 10, 0 no effect, 10 complete control
[20] = Preemergence, Rate 250 g/ha, scale of 0 to 10 where 0 is no effect and 10 is complete control
[21] = Preemergence, Rate 500 g/ha, scale of 0 to 10 where 0 is no effect and 10 is complete control
[22] = Rate 62 g/ha, Postemergence, scale of 0 to 10 where 0 is no effect and 10 is complete control
[23] = Rate 250 g/ha, Postemergence, scale of 0 to 10 where 0 is no effect and 10 is complete control
[24] = Postemergence (flood test), Rate 125 g/ha, scale 0 to 10, 0 is no effect, 10 is complete control
[25] = Rate 62 g/ha, Postemergence (flood test species), scale of 0 to 10 where 0 is no effect and 10 is complete control
[26] = Rate 500 g/ha, listed under Postemergence (flood test species), scale 0 to 10, 0 no effect, 10 complete control

CC(C)N(C(=O)n1oc(=O)n(CC2CCCO2)c1=O)c1ccc(F)cc1 (stereo not shown) [Compound 343]
4: Corn plant response rating ([1]; Preemergence, Rate 500 g/ha) | Rape plant response rating ([2]; Preemergence, Rate 250 g/ha) | Plant response rating, B. signalgrass [3, 17] | B. signalgrass plant response rating (0 to 10 scale, 0 is no effect, 10 is complete control) ([3]; Preemergence, Rate 125 g/ha) | Plant response rating, B. signalgrass [3, 23] | Plant response rating, Cocklebur [5, 19] | Plant response rating, Wheat [11, 17] | Plant response rating, Wild oats [13, 17] | Wild oats plant response rating (0 to 10 scale) ([13]; Preemergence, Rate 125 g/ha) | Plant response rating, Wild oats [13, 19]
6: Rape plant response rating ([2]; Preemergence, Rate 500 g/ha) | B. signalgrass plant response rating [3, 20] | Velvetleaf plant response rating (0 to 10 scale) ([12]; Preemergence, Rate 125 g/ha) | Plant response rating, Blackgrass [16, 19]
5: Plant response rating, Redroot pigweed [4, 19] | Wheat plant response rating ([11]; Preemergence, Rate 500 g/ha) | Plant response rating, Wheat [11, 19] | Plant response rating, Velvetleaf [12, 18] | Plant response rating, Velvetleaf [12, 19] | Plant response rating, Blackgrass [16, 23]
8: B. signalgrass plant response rating [3, 21] | Blackgrass plant response rating (0 to 10 scale) ([16]; Preemergence, Rate 125 g/ha)
0: Plant response rating, Corn [1, 17] | Plant response rating, Corn [1, 18] | Corn plant response rating (0 to 10 scale) ([1]; Preemergence, Rate 125 g/ha) | Corn plant response rating ([1]; Preemergence, Rate 250 g/ha) | Corn plant response rating ([1]; Rate 62 g/ha, Postemergence) | Plant response rating, Rape [2, 17] | Plant response rating, Rape [2, 18] | Rape plant response rating (0 to 10 scale) ([2]; Preemergence, Rate 125 g/ha) | Rape plant response rating ([2]; Rate 62 g/ha, Postemergence) | Plant response rating, Redroot pigweed [4, 17] | Redroot pigweed plant response rating ([4]; Rate 62 g/ha, Postemergence) | Plant response rating, Cocklebur [5, 17] | Plant response rating, Cocklebur [5, 18] | Cocklebur plant response rating ([5]; Preemergence, Rate 250 g/ha) | Cocklebur plant response rating ([5]; Preemergence, Rate 500 g/ha) | Cocklebur plant response rating ([5]; Rate 62 g/ha, Postemergence) | Plant response rating, Bedstraw ([6]; Rate 125 g/ha, scale 0 to 10, 0 is no effect, 10 is complete control) | Bedstraw plant response rating ([6]; Rate 62 g/ha, scale of 0 to 10 where 0 is no effect and 10 is complete control) | Plant response rating, Bedstraw ([6]; Rate 250 g/ha, scale of 0 to 10 where 0 is no effect and 10 is complete control) | Plant response rating, Ducksalad [7, 24] | Ducksalad plant response rating [7, 25] | Plant response rating, Ducksalad [7, 26] | Plant response rating, Nutsedge [8, 17] | Plant response rating, Nutsedge [8, 18] | Nutsedge plant response rating (0 to 10 scale) ([8]; Preemergence, Rate 125 g/ha) | Nutsedge plant response rating ([8]; Preemergence, Rate 250 g/ha) | Nutsedge plant response rating ([8]; Preemergence, Rate 500 g/ha) | Nutsedge plant response rating ([8]; Rate 62 g/ha, Postemergence) | Plant response rating, Barnyardgrass [9, 24] | Barnyardgrass plant response rating [9, 25] | Plant response rating, Barnyardgrass ([9]; Rate 250 g/ha, Postemergence (flood test species), scale of 0 to 10 where 0 is no effect and 10 is complete control) | Plant response rating, Morningglory [10, 18] | Plant response rating, Wheat [11, 18] | Wheat plant response rating (0 to 10 scale) ([11]; Preemergence, Rate 125 g/ha) | Wheat plant response rating ([11]; Preemergence, Rate 250 g/ha) | Plant response rating, Velvetleaf [12, 17] | Velvetleaf plant response rating ([12]; Rate 62 g/ha, Postemergence) | Wild oats plant response rating ([13]; Rate 62 g/ha, Postemergence) | Plant response rating, Rice [14, 24] | Rice plant response rating [14, 25] | Plant response rating, Rice [14, 26] | Plant response rating, S. Flatsedge [15, 24] | S. Flatsedge plant response rating [15, 25] | Plant response rating, S. Flatsedge [15, 26]
10: Plant response rating, Redroot pigweed [4, 18] | Redroot pigweed plant response rating (0 to 10 scale) ([4]; Preemergence, Rate 125 g/ha) | Redroot pigweed plant response rating ([4]; Preemergence, Rate 250 g/ha) | Redroot pigweed plant response rating ([4]; Preemergence, Rate 500 g/ha) | Blackgrass plant response rating [16, 21]
3: Plant response rating, Rape [2, 19] | Plant response rating, B. signalgrass [3, 18] | Plant response rating, Bedstraw ([6]; Rate 500 g/ha, scale 0 to 10, 0 no effect, 10 complete control) | Plant response rating, Nutsedge [8, 19] | Morningglory plant response rating ([10]; Preemergence, Rate 500 g/ha) | Plant response rating, Blackgrass [16, 17] | Blackgrass plant response rating [16, 22]
2: Plant response rating, Corn [1, 19] | B. signalgrass plant response rating [3, 22] | Plant response rating, Barnyardgrass [9, 26] | Plant response rating, Morningglory [10, 17] | Morningglory plant response rating (0 to 10 scale) ([10]; Preemergence, Rate 125 g/ha) | Morningglory plant response rating ([10]; Rate 62 g/ha, Postemergence) | Wheat plant response rating ([11]; Rate 62 g/ha, Postemergence) | Plant response rating, Wild oats [13, 18]
7: Plant response rating, B. signalgrass [3, 19] | Velvetleaf plant response rating ([12]; Preemergence, Rate 250 g/ha) | Velvetleaf plant response rating ([12]; Preemergence, Rate 500 g/ha) | Plant response rating, Blackgrass [16, 18]
9: Plant response rating, Morningglory [10, 19] | Wild oats plant response rating ([13]; Preemergence, Rate 250 g/ha) | Wild oats plant response rating ([13]; Preemergence, Rate 500 g/ha) | Blackgrass plant response rating [16, 20]
